In this assay the test system is orthotopic U87MG-luc glioma. The format is in vivo, BALB/c nude mice.

Each structure is given as a SMILES string.

In the case of `CC1(C)C(/C=C/C=C/C=C/C=C2\N(CCCCS(=O)(=O)O)c3ccc4ccccc4c3C2(C)C)=[N+](CCCCS(=O)(=O)[O-])c2ccc3ccccc3c21` [ICG, indocyanine green, reference compound], where the note is “2 h after i.v. injection, 30 nmol, n = 3”, the “detection in orthotopic glioma by fluorescent imaging” value was “detected”. Also, the “ICG signal at the tumor site by tissue fluorescence imaging” value (Figure S9) is reported as “slightly detectable”. The “ex vivo fluorescent signals in tumors” value (brains harvested at 72 h postinjection) is “undetectable”.
